Experimental data taken from ChEMBL document CHEMBL1140494, “Imidazopiperidine amides as dipeptidyl peptidase IV inhibitors for the treatment of diabetes” (Bioorg Med Chem Lett, 2007).

Tested on: not listed separately
Test: Plasma clearance in rat at 1 mg/kg, iv and 2 mg/kg, po
Format: ADME, organism-based
Conditions: not given

SMILES | clearance [mL/min/kg]
Cn1c(C(F)(F)F)nc2c1CCN(C(=O)C[C@H](N)Cc1cc(F)c(F)cc1F)C2Cc1ccccc1 (stereo in doubt; 71b) | 64
CC1c2nc(C(F)(F)F)n(C)c2CCN1C(=O)C[C@H](N)Cc1cc(F)c(F)cc1F (stereo not given in full) | 81
Cn1cnc2c1CCN(C(=O)C[C@H](N)Cc1cc(F)c(F)cc1F)C2C(F)(F)F (stereo in doubt; 67b) | 93

Biological target: Dipeptidyl peptidase 2 (Homo sapiens, UniProt Q9UHL4)
Test: Inhibition of QPP
Conditions: not given

SMILES | IC50 [µM]
Cn1cnc2c1CCN(C(=O)C[C@H](N)Cc1cc(F)c(F)cc1F)C2C(F)(F)F (stereo in doubt; 67a) | 76
Cn1c(C(F)(F)F)nc2c1CCN(C(=O)C[C@H](N)Cc1cc(F)c(F)cc1F)C2Cc1ccccc1 (stereo in doubt; 71a) | 46
Cn1c(C(F)(F)F)nc2c1CCN(C(=O)C[C@H](N)Cc1cc(F)c(F)cc1F)C2Cc1ccc(F)cc1 (stereo in doubt; 72b) | 15
Cn1c(C(F)(F)F)nc2c1CCN(C(=O)C[C@H](N)Cc1cc(F)c(F)cc1F)C2Cc1ccccc1 (stereo in doubt; 71b) | 20
CC1c2nc(C3CC3)n(C)c2CCN1C(=O)C[C@H](N)Cc1cc(F)c(F)cc1F (stereo not given in full) [listing 1 of 2 here] | 90
CC(C)Cn1c(C(F)(F)F)nc2c1CCN(C(=O)C[C@H](N)Cc1cc(F)ccc1F)C2 | 49
N[C@@H](CC(=O)N1CCc2nc(C(F)(F)F)n(Cc3ccc(F)cc3)c2C1)Cc1cc(F)ccc1F | 56
N[C@@H](CC(=O)N1CCc2c(nc(C(F)(F)F)n2Cc2ccc(F)cc2)C1)Cc1cc(F)ccc1F | 64
CC1c2nc(C(F)(F)F)n(C)c2CCN1C(=O)C[C@H](N)Cc1cc(F)c(F)cc1F (stereo not given in full) | 39
N[C@@H](CC(=O)N1CCc2[nH]c(C(F)(F)F)nc2C1)Cc1cc(F)ccc1F | > 100
Cn1c(C(F)(F)F)nc2c1CCN(C(=O)C[C@H](N)Cc1cc(F)c(F)cc1F)C2C1CC1 (stereo in doubt; 68a) | > 100
CCn1c(C(F)(F)F)nc2c1CCN(C(=O)C[C@H](N)Cc1cc(F)ccc1F)C2 | > 100
CC1c2nc(C3CC3)n(C)c2CCN1C(=O)C[C@H](N)Cc1cc(F)c(F)cc1F (stereo not given in full) [listing 2 of 2 here] | 30
Cn1c(C(F)(F)F)nc2c1CCN(C(=O)C[C@H](N)Cc1cc(F)c(F)cc1F)C2Cc1ccc(F)cc1 (stereo in doubt; 72a) | 39
Cn1c(C(F)(F)F)nc2c1CCN(C(=O)C[C@H](N)Cc1cc(F)c(F)cc1F)C2C1CC1 (stereo in doubt; 68b) | 37
CC1c2nc(C(F)(F)F)n(C)c2CCN1C(=O)C[C@H](N)Cc1cc(F)ccc1F (stereo in doubt; 63a) | > 100
CC1c2nc(C(C)(C)C)n(C)c2CCN1C(=O)C[C@H](N)Cc1cc(F)c(F)cc1F (stereo in doubt; 70b) | 19
Cn1c(C(F)(F)F)nc2c1CCN(C(=O)C[C@H](N)Cc1cc(F)ccc1F)C2 | 92
CC(C)Cn1c(C(F)(F)F)nc2c1CN(C(=O)C[C@H](N)Cc1cc(F)ccc1F)CC2 | 85
Cn1cnc2c1CCN(C(=O)C[C@H](N)Cc1cc(F)c(F)cc1F)C2C(F)(F)F (stereo in doubt; 67b) | 38
CC1c2nc(C(F)(F)F)n(C)c2CCN1C(=O)C[C@H](N)Cc1cc(F)ccc1F (stereo in doubt; 63b) | > 100
CC1c2nc(C(C)(C)C)n(C)c2CCN1C(=O)C[C@H](N)Cc1cc(F)c(F)cc1F (stereo in doubt; 70a) | 37

Tested on: not listed separately
Test: Cmax in rat at 2 mg/kg, po
Format: ADME, organism-based
Set-up: dose 2 mg/kg, route oral
Conditions: in vivo

SMILES | Cmax [nM]
Cn1c(C(F)(F)F)nc2c1CCN(C(=O)C[C@H](N)Cc1cc(F)c(F)cc1F)C2Cc1ccccc1 (stereo in doubt; 71b) | 72
CC1c2nc(C(F)(F)F)n(C)c2CCN1C(=O)C[C@H](N)Cc1cc(F)c(F)cc1F (stereo not given in full) | 98
Cn1cnc2c1CCN(C(=O)C[C@H](N)Cc1cc(F)c(F)cc1F)C2C(F)(F)F (stereo in doubt; 67b) | 50

Tested on: not listed separately
Test: Volume of distribution at steady state in rat at 1 mg/kg, iv and 2 mg/kg, po
Format: ADME, organism-based
Conditions: in vivo, read-out: Vdss

SMILES | Vd [L/kg]
Cn1c(C(F)(F)F)nc2c1CCN(C(=O)C[C@H](N)Cc1cc(F)c(F)cc1F)C2Cc1ccccc1 (stereo in doubt; 71b) | 6.5
CC1c2nc(C(F)(F)F)n(C)c2CCN1C(=O)C[C@H](N)Cc1cc(F)c(F)cc1F (stereo not given in full) | 8
Cn1cnc2c1CCN(C(=O)C[C@H](N)Cc1cc(F)c(F)cc1F)C2C(F)(F)F (stereo in doubt; 67b) | 8.3

Tested on: not listed separately
Test: Oral bioavailability in rat at 2 mg/kg, po
Format: ADME, organism-based
Conditions: in vivo

SMILES | bioavailability [%]
Cn1c(C(F)(F)F)nc2c1CCN(C(=O)C[C@H](N)Cc1cc(F)c(F)cc1F)C2Cc1ccccc1 (stereo in doubt; 71b) | 16
CC1c2nc(C(F)(F)F)n(C)c2CCN1C(=O)C[C@H](N)Cc1cc(F)c(F)cc1F (stereo not given in full) | 40
Cn1cnc2c1CCN(C(=O)C[C@H](N)Cc1cc(F)c(F)cc1F)C2C(F)(F)F (stereo in doubt; 67b) | 16

Biological target: Dipeptidyl peptidase 9 (Homo sapiens, UniProt Q86TI2)
Test: Inhibition of DPP9
Conditions: not given

Dipeptidyl peptidase 9, sequence (Q86TI2 whole entry): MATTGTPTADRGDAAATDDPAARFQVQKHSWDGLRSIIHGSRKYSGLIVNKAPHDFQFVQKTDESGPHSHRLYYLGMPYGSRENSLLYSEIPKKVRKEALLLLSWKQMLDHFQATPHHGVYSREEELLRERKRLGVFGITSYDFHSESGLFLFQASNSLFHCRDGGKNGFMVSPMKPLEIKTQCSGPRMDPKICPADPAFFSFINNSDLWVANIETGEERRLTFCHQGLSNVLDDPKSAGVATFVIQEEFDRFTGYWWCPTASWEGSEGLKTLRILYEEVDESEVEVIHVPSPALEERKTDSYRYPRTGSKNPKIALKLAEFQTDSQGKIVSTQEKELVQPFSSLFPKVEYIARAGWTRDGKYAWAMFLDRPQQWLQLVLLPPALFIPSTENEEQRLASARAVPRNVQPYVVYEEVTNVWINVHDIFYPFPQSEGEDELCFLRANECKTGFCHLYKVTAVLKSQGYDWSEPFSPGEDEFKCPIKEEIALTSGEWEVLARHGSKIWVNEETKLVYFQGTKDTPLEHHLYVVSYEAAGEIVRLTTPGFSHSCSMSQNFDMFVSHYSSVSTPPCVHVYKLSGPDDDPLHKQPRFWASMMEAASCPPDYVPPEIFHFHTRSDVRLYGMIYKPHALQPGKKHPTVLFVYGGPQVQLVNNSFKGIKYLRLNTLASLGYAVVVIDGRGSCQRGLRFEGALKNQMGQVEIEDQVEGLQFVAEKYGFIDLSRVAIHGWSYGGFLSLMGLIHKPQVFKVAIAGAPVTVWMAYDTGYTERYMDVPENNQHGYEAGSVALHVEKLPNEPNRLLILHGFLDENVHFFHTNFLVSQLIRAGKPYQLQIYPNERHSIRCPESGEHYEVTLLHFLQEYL

SMILES | IC50 [µM]
Cn1cnc2c1CCN(C(=O)C[C@H](N)Cc1cc(F)c(F)cc1F)C2C(F)(F)F (stereo in doubt; 67a) | > 100
Cn1c(C(F)(F)F)nc2c1CCN(C(=O)C[C@H](N)Cc1cc(F)c(F)cc1F)C2Cc1ccccc1 (stereo in doubt; 71a) | > 100
Cn1c(C(F)(F)F)nc2c1CCN(C(=O)C[C@H](N)Cc1cc(F)c(F)cc1F)C2Cc1ccc(F)cc1 (stereo in doubt; 72b) | > 100
Cn1c(C(F)(F)F)nc2c1CCN(C(=O)C[C@H](N)Cc1cc(F)c(F)cc1F)C2Cc1ccccc1 (stereo in doubt; 71b) | > 100
CC(C)Cn1c(C(F)(F)F)nc2c1CCN(C(=O)C[C@H](N)Cc1cc(F)ccc1F)C2 | > 100
N[C@@H](CC(=O)N1CCc2nc(C(F)(F)F)n(Cc3ccc(F)cc3)c2C1)Cc1cc(F)ccc1F | > 100
N[C@@H](CC(=O)N1CCc2c(nc(C(F)(F)F)n2Cc2ccc(F)cc2)C1)Cc1cc(F)ccc1F | > 100
CC1c2nc(C(F)(F)F)n(C)c2CCN1C(=O)C[C@H](N)Cc1cc(F)c(F)cc1F (stereo not given in full) | > 100
Cn1c(C(F)(F)F)nc2c1CCN(C(=O)C[C@H](N)Cc1cc(F)c(F)cc1F)C2C1CC1 (stereo in doubt; 68a) | > 100
CCn1c(C(F)(F)F)nc2c1CCN(C(=O)C[C@H](N)Cc1cc(F)ccc1F)C2 | > 100
Cn1c(C(F)(F)F)nc2c1CCN(C(=O)C[C@H](N)Cc1cc(F)c(F)cc1F)C2Cc1ccc(F)cc1 (stereo in doubt; 72a) | > 100
Cn1c(C(F)(F)F)nc2c1CCN(C(=O)C[C@H](N)Cc1cc(F)c(F)cc1F)C2C1CC1 (stereo in doubt; 68b) | > 100
CC1c2nc(C(F)(F)F)n(C)c2CCN1C(=O)C[C@H](N)Cc1cc(F)ccc1F (stereo in doubt; 63a) | > 100
Cn1c(C(F)(F)F)nc2c1CCN(C(=O)C[C@H](N)Cc1cc(F)ccc1F)C2 | > 100
CC(C)Cn1c(C(F)(F)F)nc2c1CN(C(=O)C[C@H](N)Cc1cc(F)ccc1F)CC2 | > 100
Cn1cnc2c1CCN(C(=O)C[C@H](N)Cc1cc(F)c(F)cc1F)C2C(F)(F)F (stereo in doubt; 67b) | > 100
CC1c2nc(C(F)(F)F)n(C)c2CCN1C(=O)C[C@H](N)Cc1cc(F)ccc1F (stereo in doubt; 63b) | > 100

Biological target: Dipeptidyl peptidase 8 (Homo sapiens, UniProt Q6V1X1)
Test: Inhibition of DPP8
Conditions: not given

Dipeptidyl peptidase 8, sequence (Q6V1X1 whole entry): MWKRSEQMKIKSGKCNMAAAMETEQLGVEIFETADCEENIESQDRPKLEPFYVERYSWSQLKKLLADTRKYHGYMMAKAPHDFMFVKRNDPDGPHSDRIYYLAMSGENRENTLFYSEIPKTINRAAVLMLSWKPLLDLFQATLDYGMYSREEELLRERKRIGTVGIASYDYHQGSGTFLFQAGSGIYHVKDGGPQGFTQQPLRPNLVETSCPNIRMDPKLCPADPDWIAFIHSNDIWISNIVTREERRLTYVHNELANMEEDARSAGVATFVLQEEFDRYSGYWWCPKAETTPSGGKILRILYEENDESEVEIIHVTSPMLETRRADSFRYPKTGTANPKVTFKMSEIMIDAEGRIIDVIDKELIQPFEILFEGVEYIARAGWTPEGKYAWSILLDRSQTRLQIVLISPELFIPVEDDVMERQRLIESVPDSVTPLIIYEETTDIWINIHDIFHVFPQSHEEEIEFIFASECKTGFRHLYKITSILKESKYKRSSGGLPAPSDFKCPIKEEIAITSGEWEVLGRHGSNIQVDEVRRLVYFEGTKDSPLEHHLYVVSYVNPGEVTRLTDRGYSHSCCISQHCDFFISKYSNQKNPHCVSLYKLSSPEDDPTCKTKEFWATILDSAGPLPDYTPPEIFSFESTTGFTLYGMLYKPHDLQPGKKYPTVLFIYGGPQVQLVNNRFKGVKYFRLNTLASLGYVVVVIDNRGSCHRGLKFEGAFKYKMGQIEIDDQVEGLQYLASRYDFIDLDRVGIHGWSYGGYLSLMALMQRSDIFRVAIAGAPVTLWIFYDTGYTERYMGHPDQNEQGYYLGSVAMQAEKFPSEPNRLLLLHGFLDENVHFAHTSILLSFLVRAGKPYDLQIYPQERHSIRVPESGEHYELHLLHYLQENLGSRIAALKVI

SMILES | IC50 [µM]
N[C@@H](CC(=O)N1CCc2nc(C(F)(F)F)n(Cc3ccc(F)cc3)c2C1)Cc1cc(F)ccc1F | > 100
CC(C)Cn1c(C(F)(F)F)nc2c1CN(C(=O)C[C@H](N)Cc1cc(F)ccc1F)CC2 | > 100

Biological target: Dipeptidyl peptidase 4 (Homo sapiens, UniProt P27487)
Test: Inhibition of DPP4
Conditions: not given

Dipeptidyl peptidase 4, sequence (P27487 whole entry): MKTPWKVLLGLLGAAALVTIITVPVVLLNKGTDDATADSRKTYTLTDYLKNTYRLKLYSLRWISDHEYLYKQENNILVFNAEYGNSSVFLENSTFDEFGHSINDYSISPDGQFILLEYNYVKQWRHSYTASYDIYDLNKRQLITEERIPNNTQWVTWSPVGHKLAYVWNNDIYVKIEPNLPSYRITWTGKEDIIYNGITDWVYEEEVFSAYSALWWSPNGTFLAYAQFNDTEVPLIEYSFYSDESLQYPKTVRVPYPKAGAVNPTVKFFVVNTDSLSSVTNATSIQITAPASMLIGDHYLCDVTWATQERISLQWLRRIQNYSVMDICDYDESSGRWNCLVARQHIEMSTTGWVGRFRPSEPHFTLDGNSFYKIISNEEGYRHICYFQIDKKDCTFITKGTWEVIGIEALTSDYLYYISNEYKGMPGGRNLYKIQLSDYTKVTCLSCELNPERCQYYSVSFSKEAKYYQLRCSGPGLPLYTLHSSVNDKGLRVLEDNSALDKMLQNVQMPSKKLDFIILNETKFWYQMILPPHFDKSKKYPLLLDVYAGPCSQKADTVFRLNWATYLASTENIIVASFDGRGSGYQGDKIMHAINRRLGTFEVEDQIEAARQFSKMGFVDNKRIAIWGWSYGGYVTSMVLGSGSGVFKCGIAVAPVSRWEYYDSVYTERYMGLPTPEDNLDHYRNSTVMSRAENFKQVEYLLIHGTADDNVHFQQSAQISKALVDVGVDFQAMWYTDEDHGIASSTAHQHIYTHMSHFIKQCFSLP

SMILES | IC50 [µM]
Cn1cnc2c1CCN(C(=O)C[C@H](N)Cc1cc(F)c(F)cc1F)C2C(F)(F)F (stereo in doubt; 67a) | 0.38
Cn1c(C(F)(F)F)nc2c1CCN(C(=O)C[C@H](N)Cc1cc(F)c(F)cc1F)C2Cc1ccccc1 (stereo in doubt; 71a) | 0.57
Cn1c(C(F)(F)F)nc2c1CCN(C(=O)C[C@H](N)Cc1cc(F)c(F)cc1F)C2Cc1ccc(F)cc1 (stereo in doubt; 72b) | 0.0058
Cn1c(C(F)(F)F)nc2c1CCN(C(=O)C[C@H](N)Cc1cc(F)c(F)cc1F)C2Cc1ccccc1 (stereo in doubt; 71b) | 0.0084
CC(C)Cn1c(C(F)(F)F)nc2c1CCN(C(=O)C[C@H](N)Cc1cc(F)ccc1F)C2 | 0.22
N[C@@H](CC(=O)N1CCc2nc(C(F)(F)F)n(Cc3ccc(F)cc3)c2C1)Cc1cc(F)ccc1F | 0.25
N[C@@H](CC(=O)N1CCc2c(nc(C(F)(F)F)n2Cc2ccc(F)cc2)C1)Cc1cc(F)ccc1F | 0.25
N[C@@H](CC(=O)N1CCc2[nH]c(C(F)(F)F)nc2C1)Cc1cc(F)ccc1F | 0.14
Cn1c(C(F)(F)F)nc2c1CCN(C(=O)C[C@H](N)Cc1cc(F)c(F)cc1F)C2C1CC1 (stereo in doubt; 68a) | 0.34
CCn1c(C(F)(F)F)nc2c1CCN(C(=O)C[C@H](N)Cc1cc(F)ccc1F)C2 | 0.18
Cn1c(C(F)(F)F)nc2c1CCN(C(=O)C[C@H](N)Cc1cc(F)c(F)cc1F)C2Cc1ccc(F)cc1 (stereo in doubt; 72a) | 0.78
Cn1c(C(F)(F)F)nc2c1CCN(C(=O)C[C@H](N)Cc1cc(F)c(F)cc1F)C2C1CC1 (stereo in doubt; 68b) | 0.11
CC1c2nc(C(F)(F)F)n(C)c2CCN1C(=O)C[C@H](N)Cc1cc(F)ccc1F (stereo in doubt; 63a) | 0.19
CC1c2nc(C(C)(C)C)n(C)c2CCN1C(=O)C[C@H](N)Cc1cc(F)c(F)cc1F (stereo in doubt; 70b) | 0.37
Cn1c(C(F)(F)F)nc2c1CCN(C(=O)C[C@H](N)Cc1cc(F)ccc1F)C2 | 0.15
CC(C)Cn1c(C(F)(F)F)nc2c1CN(C(=O)C[C@H](N)Cc1cc(F)ccc1F)CC2 | 0.26
Cn1cnc2c1CCN(C(=O)C[C@H](N)Cc1cc(F)c(F)cc1F)C2C(F)(F)F (stereo in doubt; 67b) | 0.05
CC1c2nc(C(F)(F)F)n(C)c2CCN1C(=O)C[C@H](N)Cc1cc(F)ccc1F (stereo in doubt; 63b) | 0.065
CC1c2nc(C(C)(C)C)n(C)c2CCN1C(=O)C[C@H](N)Cc1cc(F)c(F)cc1F (stereo in doubt; 70a) | 0.63

Tested on: not listed separately
Test: Half life in rat at 1 mg/kg, iv and 2 mg/kg, po
Format: ADME, organism-based
Conditions: in vivo

SMILES | half-life [h]
Cn1c(C(F)(F)F)nc2c1CCN(C(=O)C[C@H](N)Cc1cc(F)c(F)cc1F)C2Cc1ccccc1 (stereo in doubt; 71b) | 1.5
CC1c2nc(C(F)(F)F)n(C)c2CCN1C(=O)C[C@H](N)Cc1cc(F)c(F)cc1F (stereo not given in full) | 1.2
Cn1cnc2c1CCN(C(=O)C[C@H](N)Cc1cc(F)c(F)cc1F)C2C(F)(F)F (stereo in doubt; 67b) | 1.4
